Assay results published in PMC9249544, “Identification of Flavonoid C-Glycosides as Promising Antidiabetics Targeting Protein Tyrosine Phosphatase 1B” (Journal of Diabetes Research, 2022).

Target: T1, Protein tyrosine phosphatase 1B (PTP1B) (Homo sapiens, UniProt P18031)
T1 construct: gene PTPN1
T1 sequence (P18031 1-435): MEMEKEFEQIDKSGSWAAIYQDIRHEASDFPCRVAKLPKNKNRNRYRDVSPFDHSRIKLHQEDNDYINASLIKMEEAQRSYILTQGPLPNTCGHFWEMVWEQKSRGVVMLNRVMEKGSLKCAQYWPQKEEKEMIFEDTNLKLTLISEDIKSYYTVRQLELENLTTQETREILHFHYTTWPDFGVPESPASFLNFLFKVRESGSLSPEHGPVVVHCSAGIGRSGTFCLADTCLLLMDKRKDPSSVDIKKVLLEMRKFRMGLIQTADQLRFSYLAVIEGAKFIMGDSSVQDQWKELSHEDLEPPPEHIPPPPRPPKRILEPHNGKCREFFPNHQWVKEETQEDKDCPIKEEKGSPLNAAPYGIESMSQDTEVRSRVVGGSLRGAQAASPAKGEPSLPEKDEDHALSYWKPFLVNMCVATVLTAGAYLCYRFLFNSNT
Assay: p-NPP hydrolysis assay with human recombinant PTP1B ([…] nm); Lineweaver-Burk kinetics
Assay type: biochemical

**Q.** Which IC50 does the source give for O=c1cc(-c2ccc(O)c(O)c2)oc2c([C@@H]3O[C@H](CO)[C@@H](O)[C@H](O)[C@H]3O)c(O)cc(O)c12 [orientin] here?
**A.** Its IC50 is 401 µM.
